In general, Ki refers to the dissociation constant of the complex between target and ligand, obtained from inhibition or displacement.

Where two headings read alike, the source gives them in different places.

This is an account of results in patent US11596639B2, “Substituted indole Mcl-1 inhibitors” (Vanderbilt University, priority 2016, dated 2023).

Experiment [1] concerns H929 human cancer cell lines. As to the kind of experiment: Cellular viability / proliferation (Cell TiterGlo, 72 h). It counts as cell-based. Put shortly:
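H929 cells plated at 1,000/well in 10% FBS medium received a 2-fold serial compound dilution (top 50 μM, DMSO <1%) 24 h later. After 72 h, viability was read by CellTiter-Glo luminescence. IC50 came from a four-parameter fit.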
In general terms: ATP-based viability assays read luminescence as a measure of living cells.

The target in experiment [2] is Mcl-1 (Homo sapiens (Human), UniProt Q07820). As to the kind of experiment: Fluorescence polarization anisotropy (FPA) competition assay, FITC-Bak or FITC-Bim BH3 peptide. Type of experiment: binding. The conditions noted are these: read-out: Ki for Inhibition of Mcl-1 by FPA assay. On the technique in general: In fluorescence polarisation assays a small probe gives low polarisation when free and higher when bound to something large.
Sequence of Mcl-1 (Q07820 172-327): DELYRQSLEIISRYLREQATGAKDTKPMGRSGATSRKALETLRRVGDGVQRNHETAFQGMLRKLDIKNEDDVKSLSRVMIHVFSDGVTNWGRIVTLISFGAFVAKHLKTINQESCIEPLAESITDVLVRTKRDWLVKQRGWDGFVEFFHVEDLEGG

[3] abbreviates: Homo sapiens, NCI-H929, 72 h, read-out: GI50 on cellular proliferation of H929 human cancer cell lines, H929 cells, 72 h, Cell TiterGlo, 10% FBS.
The mark [4] stands for this setting: read-out: GI50 on cellular proliferation of H929 human cancer cell lines, H929 cells, 72 h, Cell TiterGlo, 10% FBS.

`Cc1cc(N2C[C@@H](C)n3c(c(CCCOc4cc(C)c(Cl)c(C)c4)c4ccc(Cl)c(-c5c(C)nn(C)c5C)c43)C2=O)c2c(c1)c(C(=O)O)cn2C` [Example 159, (R)-7-(7-chloro-10-(3-(4-chloro-3,5-dimethylphenoxy)propyl)-4-methyl-1-oxo-6-(1,3,5-trimethyl-1H-pyrazol-4-yl)-3,4-dihydropyrazino[1,2-a]indol-2(1H)-yl)-1,5-dimethyl-1H-indole-3-carboxylic acid]: the GI50 in experiment [1] (setting [3]) was found to be 290 nM. Further, in experiment [2], the Ki was under 1 nM.

As to `Cc1cc(OCCCc2c3n(c4c(-c5c(C)n[nH]c5C)c(Cl)ccc24)[C@H](C)CN(c2cn(C)c4c(C)cc(C(=O)O)cc24)C3=O)cc(C)c1Cl` [Example 160, (R)-3-(7-chloro-10-(3-(4-chloro-3,5-dimethylphenoxy)propyl)-6-(3,5-dimethyl-1H-pyrazol-4-yl)-4-methyl-1-oxo-3,4-dihydropyrazino[1,2-a]indol-2(1H)-yl)-1,7-dimethyl-1H-indole-5-carboxylic acid], in experiment [1] (setting [3]), the GI50 was found to be 690 nM. Also, the inhibition constant Ki in experiment [2] worked out at 1.1 nM.

Take `Cc1cc(OCCCc2c3n(c4c(-c5c(C)nn(CC6CCN(C)CC6)c5C)c(Cl)ccc24)[C@H](C)CN(c2cn(C)c4c(C)cc(C(=O)O)cc24)C3=O)cc(C)c1Cl` [Example 161, (R)-3-(7-chloro-10-(3-(4-chloro-3,5-dimethylphenoxy)propyl)-6-(3,5-dimethyl-1-((1-methylpiperidin-4-yl)methyl)-1H-pyrazol-4-yl)-4-methyl-1-oxo-3,4-dihydropyrazino[1,2-a]indol-2(1H)-yl)-1,7-dimethyl-1H-indole-5-carboxylic acid]: the GI50 in experiment [1] (setting [3]) was 480 nM. In experiment [2], the Ki came out at 2.8 nM.

Take `Cc1cc(N2C[C@@H](C)n3c(c(CCCOc4cc(C)c(Cl)c(C)c4)c4ccc(Cl)c(-c5c(C)nn(C)c5C)c43)C2=O)c2c(c1)c(C(=O)O)cn2C` [Example 162, (R)-7-(7-chloro-10-(3-(4-chloro-3,5-dimethylphenoxy)propyl)-4-methyl-1-oxo-6-(1,3,5-trimethyl-1H-pyrazol-4-yl)-3,4-dihydropyrazino[1,2-a]indol-2(1H)-yl)-1,5-dimethyl-1H-indole-3-carboxylic acid]: in experiment [1] (setting [4]), the GI50 came to 260 nM. The Ki in experiment [2] is under 1 nM.

In the case of `Cc1cc(OCCCc2c3n(c4c(-c5c(C)nn(C)c5C)c(Cl)ccc24)[C@H](C)CN(c2nn(C)c4ccc(C(=O)O)cc24)C3=O)cc(C)c1Cl` [Example 163, (R)-3-(7-Chloro-10-(3-(4-chloro-3,5-dimethylphenoxy)propyl)-4-methyl-1-oxo-6-(1,3,5-trimethyl-1H-pyrazol-4-yl)-3,4-dihydropyrazino[1,2-a]indol-2(1H)-yl)-1-methyl-1H-indazole-5-carboxylic acid], the GI50 in experiment [1] (setting [3]) was 260 nM. Moreover, in experiment [2], the Ki was under 1 nM.

For `CCn1cc(N2C[C@@H](C)n3c(c(CCCOc4cc(C)c(Cl)c(C)c4)c4ccc(Cl)c(-c5c(C)nn(C)c5C)c43)C2=O)c2cc(C(=O)O)ccc21` [Example 164, (R)-3-(7-Chloro-10-(3-(4-chloro-3,5-dimethylphenoxy)propyl)-4-methyl-1-oxo-6-(1,3,5-trimethyl-1H-pyrazol-4-yl)-3,4-dihydropyrazino[1,2-a]indol-2(1H)-yl)-1-ethyl-1H-indole-5-carboxylic acid], the GI50 in experiment [1] (setting [3]) was determined as 920 nM. The inhibition constant (Ki) in experiment [2] came out at 1.7 nM.

`Cc1cc(OCCCc2c3n(c4c(-c5c(C)nn(C)c5C)c(Cl)ccc24)[C@H](C)CN(c2nn(C)c4c(C(=O)O)cccc24)C3=O)cc(C)c1Cl` [Example 165, (R)-3-(7-Chloro-10-(3-(4-chloro-3,5-dimethylphenoxy)propyl)-4-methyl-1-oxo-6-(1,3,5-trimethyl-1H-pyrazol-4-yl)-3,4-dihydropyrazino[1,2-a]indol-2(1H)-yl)-1-methyl-1H-indazole-7-carboxylic acid]: the GI50 in experiment [1] (setting [3]) was found to be 1200 nM. In addition, the inhibition constant Ki in experiment [2] came to 1 nM.

For the compound `Cc1cc(OCCCc2c3n(c4c(-c5c(C)nn(C)c5C)c(Cl)ccc24)[C@H](C)CN(c2cn(C(C)C)c4ccc(C(=O)O)cc24)C3=O)cc(C)c1Cl` [Example 166, (R)-3-(7-Chloro-10-(3-(4-chloro-3,5-dimethylphenoxy)propyl)-4-methyl-1-oxo-6-(1,3,5-trimethyl-1H-pyrazol-4-yl)-3,4-dihydropyrazino[1,2-a]indol-2(1H)-yl)-1-isopropyl-1H-indole-5-carboxylic acid], in experiment [1] (setting [3]), the GI50 is 1400 nM. For the same compound, the inhibition constant (Ki) in experiment [2] was under 1 nM.

Consider `Cc1cc(OCCCc2c3n(c4c(-c5c(C)nn(C)c5C)c(Cl)ccc24)[C@H](C)CN(c2cc(C(=O)O)nc4c2ccn4C)C3=O)cc(C)c1Cl` [Example 167, (R)-4-(7-chloro-10-(3-(4-chloro-3,5-dimethylphenoxy)propyl)-4-methyl-1-oxo-6-(1,3,5-trimethyl-1H-pyrazol-4-yl)-3,4-dihydropyrazino[1,2-a]indol-2(1H)-yl)-1-methyl-1H-pyrrolo[2,3-b]pyridine-6-carboxylic acid], for which the GI50 in experiment [1] (setting [3]) is 4100 nM. In experiment [2], the inhibitory constant (Ki) is under 1 nM.

Turning to `Cc1cc(OCCCc2c3n(c4c(-c5c(C)ncnc5C)c(Cl)ccc24)[C@H](C)CN(c2cccc4c(C(=O)O)cn(C)c24)C3=O)cc(C)c1Cl` [Example 168, 7-[(4R)-7-chloro-10-[3-(4-chloro-3,5-dimethyl-phenoxy)propyl]-6-(4,6-dimethylpyrimidin-5-yl)-4-methyl-1-oxo-3,4-dihydropyrazino[1,2-a]indol-2-yl]-1-methyl-indole-3-carboxylic acid], the GI50 in experiment [1] (setting [3]) worked out at 1000 nM. The Ki in experiment [2] worked out at 1.1 nM.

For the compound `Cc1cc(OCCCc2c3n(c4c(-c5c(C)nn(C)c5C)c(Cl)ccc24)[C@H](C)CN(c2ccnc4c2cc(C(=O)O)n4C)C3=O)cc(C)c1Cl` [Example 169, (R)-4-(7-chloro-10-(3-(4-chloro-3,5-dimethylphenoxy)propyl)-4-methyl-1-oxo-6-(1,3,5-trimethyl-1H-pyrazol-4-yl)-3,4-dihydropyrazino[1,2-a]indol-2(1H)-yl)-1-methyl-1H-pyrrolo[2,3-b]pyridine-2-carboxylic acid], in experiment [1] (setting [3]), the GI50 turned out to be 2600 nM. The Ki in experiment [2] is under 1 nM.

For `Cc1cc(OCCCc2c3n(c4c(-c5c(C)nn(C)c5C)c(Cl)ccc24)[C@H](C)CN(c2cc4c(C(=O)O)cccc4n2C)C3=O)cc(C)c1Cl` [Example 170, 2-[(4R)-7-chloro-10-[3-(4-chloro-3,5-dimethyl-phenoxy)propyl]-4-methyl-1-oxo-6-(1,3,5-trimethylpyrazol-4-yl)-3,4-dihydropyrazino[1,2-a]indol-2-yl]-1-methyl-indole-4-carboxylic acid], the GI50 in experiment [1] (setting [3]) came out at 2600 nM. In addition, the Ki in experiment [2] amounted to 2.7 nM.

Turning to `Cc1cc(OCCCc2c3n(c4c(-c5c(C)nn(C)c5C)c(Cl)ccc24)[C@H](C)CN(c2ccc4c(c2)c(C(=O)O)cn4C)C3=O)cc(C)c1Cl` [Example 171, (R)-5-(7-Chloro-10-(3-(4-chloro-3,5-dimethylphenoxy)propyl)-4-methyl-1-oxo-6-(1,3,5-trimethyl-1H-pyrazol-4-yl)-3,4-dihydropyrazino[1,2-a]indol-2(1H)-yl)-1-methyl-1H-indole-3-carboxylic acid], the GI50 in experiment [1] (setting [3]) is 1500 nM. In addition, the Ki in experiment [2] is under 1 nM.

As for `Cc1cc(OCCCc2c3n(c4c(-c5c(C)nn(C)c5C)c(Cl)ccc24)[C@H](C)CN(c2ccnc4ccc(C(=O)O)cc24)C3=O)cc(C)c1Cl` [Example 172, (R)-4-(7-Chloro-10-(3-(4-chloro-3,5-dimethylphenoxy)propyl)-4-methyl-1-oxo-6-(1,3,5-trimethyl-1H-pyrazol-4-yl)-3,4-dihydropyrazino[1,2-a]indol-2(1H)-yl)quinoline-6-carboxylic acid], in experiment [1] (setting [3]), the GI50 worked out at 320 nM. Besides, the inhibition constant Ki in experiment [2] is under 1 nM.

As for `CCn1cc(C(=O)O)c2c(N3C[C@@H](C)n4c(c(CCCOc5cc(C)c(Cl)c(C)c5)c5ccc(Cl)c(-c6c(C)nn(C)c6C)c54)C3=O)cccc21` [Example 173, 4-[(4R)-7-chloro-10-[3-(4-chloro-3,5-dimethyl-phenoxy)propyl]-4-methyl-1-oxo-6-(1,3,5-trimethylpyrazol-4-yl)-3,4-dihydropyrazino[1,2-a]indol-2-yl]-1-ethyl-indole-3-carboxylic acid], the GI50 in experiment [1] (setting [3]) stood at 3300 nM. Also, in experiment [2], the Ki came out at 2.7 nM.

Consider `Cc1cc(OCCCc2c3n(c4c(-c5c(C)nn(C)c5C)c(Cl)ccc24)[C@H](C)CN(c2cc4cc(C(=O)O)ccc4n2C)C3=O)cc(C)c1Cl` [Example 174, 2-[(4R)-7-chloro-10-[3-(4-chloro-3,5-dimethyl-phenoxy)propyl]-4-methyl-1-oxo-6-(1,3,5-trimethylpyrazol-4-yl)-3,4-dihydropyrazino[1,2-a]indol-2-yl]-1-methyl-indole-5-carboxylic acid], for which the GI50 in experiment [1] (setting [3]) was 6300 nM. Also, the Ki in experiment [2] amounted to 4.2 nM.

Take `Cc1cc(OCCCc2c3n(c4c(-c5c(C)nn(C)c5C)c(Cl)ccc24)[C@H](C)CN(c2nn(C)c4cccc(C(=O)O)c24)C3=O)cc(C)c1Cl` [Example 175, (R)-3-(7-Chloro-10-(3-(4-chloro-3,5-dimethylphenoxy)propyl)-4-methyl-1-oxo-6-(1,3,5-trimethyl-1H-pyrazol-4-yl)-3,4-dihydropyrazino[1,2-a]indol-2(1H)-yl)-1-methyl-1H-indazole-4-carboxylic acid]: the GI50 in experiment [1] (setting [4]) came to 340 nM. Moreover, the Ki in experiment [2] was under 1 nM.

For the compound `Cc1cc(OCCCc2c3n(c4c(-c5c(C)ncnc5C)c(Cl)ccc24)CCCN(c2cn(C)c4cc(C(=O)O)ccc24)C3=O)cc(C)c1Cl` [Example 176, 3-[8-Chloro-11-[3-(4-chloro-3,5-dimethyl-phenoxy)propyl]-7-(4,6-dimethylpyrimidin-5-yl)-1-oxo-4,5-dihydro-3H-[1,4]diazepino[1,2-a]indol-2-yl]-1-methyl-indole-6-carboxylic acid], the GI50 in experiment [1] (setting [3]) came to 410 nM. Moreover, the Ki in experiment [2] was under 1 nM.
